# In article PMC3164908 (European journal of medicinal chemistry, 2011):
# Entries after “also recorded” stand apart in the source; their conditions may differ. Like-named read-outs stand apart in the source and are kept apart here.
# Assays:
# MT-2 cell line = assay: Cell viability assay; assay type: cell-based, human; settings: MTT assay, concentrations up to 100 μM
# Solubility in water = assay type: physicochemical
# [1] = system: multidrug-resistant strains of HIV; settings: cited from earlier work
# [2] = system: TZM-BL (derived from Hela Cells); assay: Cytotoxicity screening, Promega CellTiter-Glo Luminescent Cell Viability Assay; assay type: cell-based; settings: Homo sapiens, read-out: IC50 (μM), concentration that inhibits cell growth by 50%
structure (smiles),measurement,setting,value
"[N-]=[N+]=N[C@]1(CO)O[C@@H](n2ccc(N)nc2=O)[C@@H](F)[C@@H]1O [Compound 10, 1-(4′-azido-2′-deoxy-2′-fluoro-β -D-arabinofuranosyl)cytosine]",cytotoxicity / effect on cell growth,MT-2 cell line,did not show significant cytotoxicity; also recorded: without significant cytotoxicity; also recorded: no significant effect on cell growth or any cytotoxic effect
same,solubility,Solubility in water; water,3.1 g in 100 g water
Cl.[N-]=[N+]=N[C@]1(CO)O[C@@H](n2ccc(N)nc2=O)[C@@H](F)[C@@H]1O [Compound 11],cytotoxicity / effect on cell growth,MT-2 cell line,did not show significant cytotoxicity; also recorded: without significant cytotoxicity; also recorded: no significant effect on cell growth or any cytotoxic effect
same,solubility,Solubility in water,14.3 g in 100 g water
Cc1cn([C@H]2C[C@H](O)[C@](CO)(N=[N+]=[N-])O2)c(=O)[nH]c1=O [4′-C-azidothymidine],EC50,[1],0.34 µM
"Cl.[N-]=[N+]=N[C@]1(CO)O[C@@H](n2ccc(N)nc2=O)[C@@H](F)[C@@H]1O [Compound 11, 1-(4-azido-2-deoxy-2-fluoro)-β-D-arabinofuranosyl)cytosine hydrochloride salt]",IC50,[2],> 140 µM
